Assay: in vitro
Conditions: human, hela cells, % viability

| Compound | viability at 28.5 h, 10 µM [%] |
| --- | --- |
| Cc1ccc2nc(CNC(=O)N(C)CCc3c(C)n[nH]c3C)cn2c1 [CBK306984] | 81.1 |
| Cn1c(CN2CCN(c3ccc(C#N)cc3)CC2)nnc1[C@H]1C[C@@H](N)C1 [CBK306985] | 109 |
| CN1CCCCCC1c1nc(-c2c[nH]c3ccccc23)nn1CCO (stereo not shown) [CBK306988] | 96 |
| Cc1cccc(=O)n1CCCNc1cc(C2CCOC2)ncn1 (stereo not shown) [CBK306992] | 84.4 |
| CCCCSc1nc(N)cc(N2CCCC(N3CCCC3=O)C2)n1 (stereo not shown) [CBK306995] | 95.5 |
| CSc1ncc(CNC(=O)Nc2ccc3c(c2)CCC3)n1C [CBK306996] | 107 |
| Cc1ccn(CCNC(=O)C2CCC(=O)N(CCc3ccccn3)C2)n1 (stereo not shown) [CBK306998] | 93.5 |
| CCCCC(c1cccnc1)N(C)C(=O)c1cc(C)c(CC)n(C)c1=O (stereo not shown) [CBK306999] | 88.5 |
| CCCCSc1nc(N)cc(N2CCC3(CCNC(=O)CC3)CC2)n1 [CBK307001] | 98.2 |
| CC(C)NC(=O)NC1CCCc2nc(N3CCC(CO)CC3)ncc21 (stereo not shown) [CBK307002] | 83.3 |
| CSCCNC(=O)c1coc(COc2ccc3sc(C)nc3c2)n1 [CBK307004] | 99.3 |
| c1cnc(NCc2cc3n(n2)CCN(CC2CCCC2)C3)nc1 [CBK307007] | 87.9 |
| CN(CCc1cnn(C)c1)C(=O)NCCCN1CCCC1=O [CBK307008] | 91.1 |
| CC(=O)Nc1cccc(C(=O)N2CCC(OCc3ccccn3)CC2)c1 [CBK307009] | 114 |
| CCn1cc(CN(C)Cc2ccon2)c2cc(C(=O)O)ncc21 [CBK307017] | 84.7 |
| CCN(C)CC(=O)N1CCC(Oc2cc(C)ccc2F)(C(=O)O)CC1 [CBK307020] | 105 |
| Cc1nc(N)nc(N[C@@H]2CCOC[C@H]2OCCN(C)C)c1Cl [CBK307024] | 88.7 |
| Cc1cnc(NCC2(CO)CCOCC2)nc1N(C)C [CBK307026] | 104 |
| CCn1c(CC2CCN(c3nc(C)cc(C)c3C#N)CC2)nn(C)c1=O [CBK307027] | 111 |
| COCCn1c(CO)nnc1[C@H]1C[C@@H](NC(=O)c2cc(F)ccc2F)C1 [CBK307032] | 85.1 |
| Cn1cc(NC(=O)N2CCCN(Cc3ccccn3)CC2)nn1 [CBK307034] | 86.8 |
| Cc1nc(N2CCCCC2)ncc1C(=O)NCCc1cc[nH]n1 [CBK307035] | 113 |
| CCCN1CC(NS(=O)(=O)c2cc(OC)c(C)cc2OC)CC1=O (stereo not shown) [CBK307036] | 75.4 |

| Compound | viability at 28.5 h, 10 µM [%] |
| --- | --- |
| N[C@H]1C[C@H](c2nnc(Cn3ncc(N4CCCC4)cc3=O)n2C2CC2)C1 [CBK307039] | 107 |
| CCOC(=O)N1CCN(C2CCCN(Cc3cnc(N(C)C)s3)C2)CC1 (stereo not shown) [CBK307041] | 93.7 |
| Nc1nonc1-n1cc(CN2CCCCC2)nn1 [CBK307044] | 97.1 |
| COCCn1cnnc1C(C)NC(=O)Cn1cc2ccccc2n1 (stereo not shown) [CBK307047] | 92.1 |
| CC(C)Cc1cc(CNC(=O)Nc2cc(-c3cccnc3)nn2C)no1 [CBK307048] | 84.9 |
| CC(C)CC(NC(=O)Cc1cccc(O)c1)c1ncnn1C (stereo not shown) [CBK307050] | 105 |
| CC(CN1CCOCC1)NS(=O)(=O)c1cccc(C(=O)N2CCCC2)c1 (stereo not shown) [CBK307053] | 107 |
| Cc1nc2ncc(-c3ccccc3C(=O)N(C(C)C)C(C)C)cn2n1 [CBK307054] | 84.1 |
| COCCN(Cc1cnn(C)c1)C(=O)c1ccc2oc(C)cc2c1 [CBK307059] | 96.6 |
| CN(CC1CCCC1)c1nccc(N2CCN[C@H]3CS(=O)(=O)C[C@H]32)n1 [CBK307060] | 83.9 |
| COCCn1c(CO)nnc1[C@H]1C[C@@H](NC(=O)c2ccc(C)s2)C1 [CBK307063] | 73.9 |
| Cc1nc(C(C)NC(=O)CCc2cnn(C)c2)c(C)s1 (stereo not shown) [CBK307064] | 92.6 |
| CCNc1ncc(C(=O)NC(CCn2ccnc2)c2ccccc2)cn1 (stereo not shown) [CBK307066] | 110 |
| Cc1nc2cc(OCc3nc(C(=O)NCC(O)CO)co3)ccc2s1 (stereo not shown) [CBK307067] | 102 |
| Cc1ccsc1C(=O)N1CCC(n2cc(C(C)(C)O)nn2)CC1 [CBK307069] | 110 |
| COc1cc(OC)c(CN2CC3(C)CC2CC(C)(C)C3)cc1Br (stereo not shown) [CBK307074] | 86.4 |
| O=C(c1ccc2c(c1)ncn2CCO)N1CCC(c2ccccc2F)C1 (stereo not shown) [CBK307075] | 88.5 |
| CSc1nccc(N2CCC(NCCCn3ccnn3)CC2)n1 [CBK307076] | 92.7 |
| CCc1ncc(C(=O)N(Cc2ccccn2)CC2CCCO2)cn1 (stereo not shown) [CBK307077] | 95.1 |
| CCc1c(C)cc(C(=O)N(C)C(CC)c2ccccn2)c(=O)n1C (stereo not shown) [CBK307078] | 95.6 |
| Cn1cc(CNC(=O)Nc2cc(C(=O)N3CCOCC3)ccc2Cl)cn1 [CBK307080] | 83.4 |
| CN(Cc1ccncn1)C(=O)c1cn(CC2CCCO2)nn1 (stereo not shown) [CBK307081] | 108 |
| Cc1nc2c(c(N(C)C)n1)CCN(C(=O)c1cnn(C(C)C)c1)C2 [CBK307083] | 109 |

| Compound | viability at 28.5 h, 10 µM [%] |
| --- | --- |
| Cn1nnnc1SCCNC(=O)Nc1ccc(CN2CCOCC2)cc1 [CBK307084] | 97.4 |
| Cn1nccc1CCNS(=O)(=O)c1cccc(C(=O)N2CCCCC2)c1 [CBK307086] | 89.2 |
| Cc1nn(CC(=O)N(C)CCCc2nccn2C)c(=O)c2ccccc12 [CBK307087] | 92.2 |
| CCC(NC(=O)CCc1cc2n(n1)CCNC2)c1cn2cccnc2n1 (stereo not shown) [CBK307090] | 87.1 |
| CN(C)c1nc(N(C)CC2(CO)CCOCC2)ncc1F [CBK307091] | 110 |
| CC1(C)CC(NC(=O)c2cc(Cn3ccc4ccccc43)[nH]n2)CCO1 (stereo not shown) [CBK307092] | 87.7 |
| O=C(N[C@H]1C[C@H](c2nnc(CO)n2C2CC2)C1)c1ccc(Cl)c(F)c1 [CBK307093] | 91.4 |
| CCCn1cc(CNC(=O)c2cccc(S(=O)(=O)N3CCCC3)c2)cn1 [CBK307095] | 78.5 |
| Cc1cc(F)ccc1C(=O)NCC1CCN(c2cnn(C)c(=O)c2)C1 (stereo not shown) [CBK307097] | 112 |
| CC1CCc2c(sc(NC(=O)c3cccs3)c2C(=O)N(C)C)C1 (stereo not shown) [CBK307100] | 90.9 |
| COc1ccccc1CN(Cc1cccnc1)C(=O)CCn1cnnn1 [CBK307106] | 90.4 |
| CN(C(=O)C1CCc2nn(C)c(=O)n2C1)C1Cc2ccccc2C1 (stereo not shown) [CBK307108] | 107 |
| COc1cc2c(cc1-c1cn(CCc3n[nH]c(=O)[nH]3)nn1)CCC2 [CBK307112] | 98.3 |
| NC1CC(c2cc(NCCCc3nnc4ccccn34)ncn2)C1 (stereo not shown) [CBK307120] | 104 |
| CCCCC(c1cccnc1)N(C)C(=O)c1cnc(C)c(C)c1 (stereo not shown) [CBK307121] | 103 |
| CCCn1ncc(C(=O)N2CCN(CC3CCCN(C)C3)CC2)c1C (stereo not shown) [CBK307122] | 89.1 |
| CN1CCCN(c2cnn(Cc3ccc(Cl)s3)c(=O)c2)CC1 [CBK307123] | 90.8 |
| Cn1ccnc1CCC1CCCCN1C(=O)NCc1cccc(F)c1 (stereo not shown) [CBK307124] | 93.5 |
| CNC(=O)CN(C)Cc1c(C(=O)N2CCOCC2)nc2c(C)cccn12 [CBK307128] | 114 |
| CC(=O)N1CCc2nc(C)nc(NCCn3cccc3)c2CC1 [CBK307130] | 83.7 |
| Fc1cnc(N2CCCC3(CCOC3)C2)nc1N1CCOCC1 (stereo not shown) [CBK307131] | 84.5 |
| CCn1c(CC2CCN(C(=O)c3ccc(C)c(C)c3)CC2)nn(C)c1=O [CBK307133] | 87.8 |
| Cc1ccc2c(c1)c(C(=O)N1CCn3nc(CO)cc3C1)nn2C [CBK307134] | 104 |

| Compound | viability at 28.5 h, 10 µM [%] |
| --- | --- |
| CCN1CC2(CCC1=O)CCN(Cc1nnc(-c3cccnc3)o1)CC2 [CBK307137] | 92.6 |
| CCOc1cc2c(cc1CN1CCN(Cc3noc(C)n3)CC1)CCC2 [CBK307138] | 83.1 |
| CCOC(=O)c1cn(CC)c2cc(F)c(OCC)cc2c1=O [CBK307139] | 87.8 |
| CCOC(=O)c1cn(CC)c2cc(N3CCSCC3)c(F)cc2c1=O [CBK307143] | 89.8 |
| CCn1cc(C(=O)NN)c(=O)c2cc(F)c(N3CCCC3)cc21 [CBK307146] | 82.9 |
| CC(C)CC(NC(=O)c1cccnc1)c1nnc2n1CCNCC2 (stereo not shown) [CBK307149] | 89.2 |
| O=C(Nc1ccnn1Cc1cccs1)N1Cc2cnn(CCO)c2C1 [CBK307150] | 89.7 |
| CN(Cc1nc2c(s1)CCCC2)C(=O)COc1ncnc2ccccc12 [CBK307151] | 90.7 |
| COc1cccc2ncn(CCCc3c(C)n[nH]c3C)c(=O)c12 [CBK307153] | 82.9 |
| Cn1nc(CO)c2c1CCN(CC(=O)Nc1nc(C(C)(C)C)cs1)C2 [CBK307161] | 85.7 |
| Cn1c(N2CC[C@H](O)C2)nc2cc(C(=O)NCC3CC3)ccc21 [CBK307164] | 92.1 |
| CC(=O)Nc1ccc(F)c(NC(=O)NCCN2CCCOC2=O)c1 [CBK307166] | 92.8 |
| CCOC(=O)c1cn(CC)c2cc(N3CCCC3)c(F)cc2c1=O [CBK307169] | 101 |
| CCn1cc(C(=O)N2CCCC2c2nccs2)c(=O)c2ccc(C)nc21 (stereo not shown) [CBK307171] | 86.4 |
| CC(C)(C)NC(=O)c1nn2c(c1Br)NC(c1cccs1)CC2C(F)(F)F (stereo not shown) [CBK307175] | 84.9 |
| CC(C)OC(=O)c1cc2n(n1)C(C(F)(F)F)CC(c1cccs1)N2 (stereo not shown) [CBK307176] | 87.6 |
| CCn1nc(C(C)C)cc1C(=O)N1CC2(CCNCC2)CC1C(=O)O (stereo not shown) [CBK307179] | 90.9 |
| O=C(c1nn2c(c1Br)NC(c1cccs1)CC2C(F)(F)F)N1CCCC1 (stereo not shown) [CBK307180] | 88.7 |
| Cc1cccc(=O)n1CCCn1cnc2nccnc2c1=O [CBK307186] | 116 |
| CN1CCC(OCCCn2ccnc2-c2ccccc2C(=O)O)CC1 [CBK307188] | 87 |
| Cc1cc(OCC(=O)N(C)C)c2c3c(c(=O)oc2c1)CCCC3 [CBK307189] | 96.3 |
| Cc1nn(C)c2nc(NCc3ccc(C(=O)N4CCCC4)cc3)sc12 [CBK307190] | 88.6 |
